Laboratory results taken from ChEMBL document CHEMBL5046251, “Discovery of a Series of Pyrimidine Carboxamides as Inhibitors of Vanin-1” (J Med Chem, 2022).
The source made the active and inactive calls. No cut-off for these calls is given here.

Tests used:
[1] = tested on: CYP2A4; experiment: Inhibition of CYP2A4 (unknown origin) at 3 uM relative to control; format: ADME; conditions: human
[2] = Plasma protein binding in Wistar han rat assessed as unbound fraction; format: ADME, cell-free
[3] = AUC in rat at 2 mg/kg, iv measured upto 24 hrs by LC-MS/MS analysis; format: ADME, organism-based; set-up: route intravenous, dose 2 mg/kg, time <=24; conditions: in vivo
[4] = Unbound drug concentration in serum of DSS-induced BALB/c mouse colitis model at 5 mg/kg administered for 10 days; format: ADME, organism-based; conditions: in vivo, 240 h, time 10 day
[5] = Half life in beagle dog by LC-MS/MS analysis; conditions: in vivo
[6] = Unbound drug concentration in serum of DSS-induced BALB/c mouse colitis model at 50 mg/kg administered for 10 days; format: ADME, organism-based; conditions: in vivo, 240 h, time 10 day
[7] = Unbound drug concentration in serum of DSS-induced BALB/c mouse colitis model at 1.5 mg/kg administered for 10 days; format: ADME, organism-based; conditions: in vivo, 240 h, time 10 day
[8] = Plasma protein binding in beagle dog assessed as unbound fraction; format: ADME, cell-free, Canis lupus familiaris
[9] = Half life in rat at 2 mg/kg, iv measured upto 24 hrs by LC-MS/MS analysis; conditions: in vivo
[10] = Clearance in beagle dog by LC-MS/MS analysis; format: ADME, Canis lupus familiaris; conditions: in vivo
[11] = Intrinsic clearance in human hepatocytes assessed per million cells by relay assay method; format: ADME, cell-based, Hepatocyte
[12] = Unbound drug concentration in serum of DSS-induced BALB/c mouse colitis model at 0.5 mg/kg administered for 10 days; format: ADME, organism-based; conditions: in vivo, 240 h, time 10 day
[13] = Renal clearance in rat at 2 mg/kg, iv assessed glomerular filtration rate; format: ADME, organism-based; conditions: in vivo
[14] = AUC in rat at 10 mg/kg, po measured upto 24 hrs by LC-MS/MS analysis; format: ADME, organism-based; set-up: route oral, dose 10 mg/kg, time <=24; conditions: in vivo
[15] = Volume of distribution in rat at 2 mg/kg, iv measured upto 24 hrs by LC-MS/MS analysis; format: ADME, organism-based; conditions: in vivo
[16] = Clearance in rat at 2 mg/kg, iv measured upto 24 hrs by LC-MS/MS analysis; format: ADME, organism-based; conditions: in vivo
[17] = Inhibition of beagle dog vanin-1
[18] = Plasma protein binding in human assessed as unbound fraction; format: ADME, cell-free
[19] = Oral bioavailability in beagle dog; format: ADME, organism-based, Canis lupus familiaris; conditions: in vivo
[20] = Renal clearance in beagle dog assessed as glomerular filtration rate; format: ADME, Canis lupus familiaris; conditions: in vivo
[21] = Volume of distribution at steady state in beagle dog by LC-MS/MS analysis; format: ADME, Canis lupus familiaris; conditions: in vivo, read-out: Vdss
[22] = Intrinsic clearance in rat hepatocytes assessed per million cells; format: ADME, cell-based, Hepatocyte
[23] = tested on: Mus musculus; experiment: Anti-colitis activity against DSS-induced BALB/c mouse model assessed as increase in body weight at 0.5 to 50 mg/kg, po, qd administered for 10 days; format: functional, organism-based; conditions: dose 0.5-50 mg/kg, time 10.0 day
[24] = Intrinsic clearance in human hepatocytes assessed per million cells; format: ADME, cell-based, Hepatocyte
[25] = Oral bioavailability in rat at 10 mg/kg measured upto 24 hrs by LC-MS/MS analysis; format: ADME, organism-based; conditions: in vivo
[26] = tested on: Mus musculus; experiment: Anti-colitis activity against DSS-induced BALB/c mouse model assessed as reduction in disease activity index at 0.5 to 50 mg/kg, po, qd administered for 10 days; format: functional, organism-based; conditions: dose 0.5-50 mg/kg, time 10.0 day
[27] = Intrinsic clearance in human liver microsomes; format: ADME, Microsome
[28] = Plasma protein binding in mouse assessed as unbound fraction; format: ADME, cell-free
[29] = tested on: Mus musculus; experiment: In vivo inhibition of vanin-1 in DSS-induced BALB/c mouse colitis model serum administered for 10 days; format: functional, organism-based; conditions: dose 0.5-50 mg/kg, time 10.0 day

O=C(c1cnc(NCc2cnccn2)nc1)N1CCC2(CCOCC2)C1 [PFI-653]
inhibition at 3 µM [1]: < 5% | fraction unbound [2]: 0.812 | AUC at 24 h [3]: 1790 ng·h/mL | Drug uptake(free) [4]: 202 nM | half-life [5]: 3.4 h | Drug uptake(free) [6]: 773 nM | Drug uptake(free) [7]: 61 nM | fraction unbound [8]: 0.826 | half-life at 24 h [9]: 1 h | clearance [10]: 3.5 mL/min/kg | CLint [11]: < 0.16 µL/min/1e6 cells | Drug uptake(free) [12]: 1 nM | CL [13]: 55% | AUC at 24 h [14]: 8540 ng·h/mL | Vd [15]: 0.84 L/kg | clearance [16]: 19 mL/min/kg | IC50 [17]: 0.9 nM | fraction unbound [18]: 0.812 | bioavailability [19]: 100% | CL [20]: 22% | Vd [21]: 0.94 L/kg | CLint [22]: < 3 µL/min/1e6 cells | Activity [23]: Active | CLint [24]: < 3 µL/min/1e6 cells | bioavailability [25]: 96% | Activity [26]: Active | Intrinsic clearance [27]: < 8 µL/min/mg | fraction unbound [28]: 0.941 | Activity [29]: Dose-Dependent Effect
